Test results as given in publication PMC10947579, “Structure‐Based Demystification of Radical Catalysis by a Coenzyme B12 Dependent Enzyme—Crystallographic Study of Glutamate Mutase with Cofactor Homologues” (Angewandte Chemie (Weinheim an Der Bergstrasse, Germany), 2022).

Molecular target: T1, glutamate mutase (GM) (Clostridium cochlearium, UniProt P80077+P80078)
T1 construct: gene glmE; hetero-tetramer (two epsilon, two sigma subunits), reconstituted with cobalamin
T1 sequence (P80077 1-483): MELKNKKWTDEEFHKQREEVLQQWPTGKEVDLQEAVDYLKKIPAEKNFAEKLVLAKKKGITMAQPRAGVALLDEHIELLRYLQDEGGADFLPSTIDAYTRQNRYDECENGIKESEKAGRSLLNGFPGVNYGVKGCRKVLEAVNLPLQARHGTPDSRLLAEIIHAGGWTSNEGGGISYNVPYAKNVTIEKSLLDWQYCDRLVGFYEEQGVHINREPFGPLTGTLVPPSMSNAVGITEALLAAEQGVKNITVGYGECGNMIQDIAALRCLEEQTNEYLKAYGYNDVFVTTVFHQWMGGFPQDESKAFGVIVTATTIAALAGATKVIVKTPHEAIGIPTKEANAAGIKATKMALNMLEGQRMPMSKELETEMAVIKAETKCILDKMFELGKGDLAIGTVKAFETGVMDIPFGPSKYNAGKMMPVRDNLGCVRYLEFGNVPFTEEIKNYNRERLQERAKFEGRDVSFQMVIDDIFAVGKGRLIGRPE
T1 sequence (P80078 1-137): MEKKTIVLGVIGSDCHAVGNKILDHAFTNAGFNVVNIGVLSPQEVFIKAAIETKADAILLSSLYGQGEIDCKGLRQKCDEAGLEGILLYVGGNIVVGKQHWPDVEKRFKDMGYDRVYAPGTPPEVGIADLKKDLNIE
Test: X-ray crystal structure, […] Å
Format: binding
Conditions: with AdoMeCbl (also bound in the AdoEtCbl complex 6H9F); pseudo-substrate in substrate site of epsilon subunit (arginine claw)

## O=C(O)[C@@H](O)[C@H](O)C(=O)O [(S,S)‐tartrate]
  X-ray crystal structure, 1.8 Å: strong polar binding interactions with the carboxylate groups of an (S,S)‐tartrate ion
